The values below come from ChEMBL document CHEMBL1909046, “DrugMatrix in vitro pharmacology data”.

pIC50, pKi: −log10 of the molar value.

Assay [1] in a line: DRUGMATRIX: Nicotinic Acetylcholine radioligand binding (ligand: [125I] Epibatidine). In kind it is cell membranes, Membrane. The following applies: imr-32; Not Active = under 50% inhibition at 10 µM.
For assay [2], the target named is Tyrosine-protein kinase Lck (Homo sapiens, UniProt P06239). In words: DRUGMATRIX: Protein Tyrosine Kinase, LCK enzyme inhibition (substrate: Poly(Glu:Tyr)). In kind it is cell-based, Insect cells. The following applies: insect cells; Not Active = under 50% inhibition at 10 µM.
Tyrosine-protein kinase Lck, sequence (P06239 whole entry): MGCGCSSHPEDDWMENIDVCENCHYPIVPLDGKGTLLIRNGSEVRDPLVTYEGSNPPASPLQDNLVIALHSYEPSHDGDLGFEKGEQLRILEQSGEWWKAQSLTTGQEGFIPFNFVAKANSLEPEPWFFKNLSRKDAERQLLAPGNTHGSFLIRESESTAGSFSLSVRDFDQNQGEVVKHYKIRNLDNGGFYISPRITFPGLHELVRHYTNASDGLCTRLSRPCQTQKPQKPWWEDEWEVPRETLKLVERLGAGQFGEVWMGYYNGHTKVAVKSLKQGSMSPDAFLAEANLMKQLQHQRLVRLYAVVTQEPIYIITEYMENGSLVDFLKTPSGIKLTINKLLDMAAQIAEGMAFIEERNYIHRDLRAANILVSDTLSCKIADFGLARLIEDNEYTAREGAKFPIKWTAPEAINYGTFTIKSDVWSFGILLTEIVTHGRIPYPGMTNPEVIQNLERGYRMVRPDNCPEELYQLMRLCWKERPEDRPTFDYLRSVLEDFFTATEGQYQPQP
For assay [3], the target named is Mitogen-activated protein kinase 14 (Homo sapiens, UniProt Q16539). Set-up: species or system Escherichia coli.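 Also: inhibition of p38alpha enzyme activity in a biochemical kinase assay, with myelin basic protein serving as substrate; in other assays of this panel Not Active means under 50% inhibition at 10 µM.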
Mitogen-activated protein kinase 14, sequence (Q16539 whole entry): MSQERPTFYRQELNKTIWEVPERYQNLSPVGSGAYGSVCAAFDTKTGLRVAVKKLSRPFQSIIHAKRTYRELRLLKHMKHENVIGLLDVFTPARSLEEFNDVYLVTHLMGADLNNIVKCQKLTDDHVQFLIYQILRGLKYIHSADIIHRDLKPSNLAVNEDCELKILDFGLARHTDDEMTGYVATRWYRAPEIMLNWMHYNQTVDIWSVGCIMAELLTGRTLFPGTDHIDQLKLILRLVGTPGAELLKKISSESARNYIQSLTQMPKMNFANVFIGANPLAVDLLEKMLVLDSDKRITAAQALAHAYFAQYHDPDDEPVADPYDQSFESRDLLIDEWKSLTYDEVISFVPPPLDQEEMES
Assay [4] deals with 5-hydroxytryptamine receptor 6 (Homo sapiens, UniProt P50406). It counts as cell membranes, HeLa, Membrane. The following applies: for pIC50: read-out: IC50; for pKi: read-out: Ki.
5-hydroxytryptamine receptor 6, sequence (P50406 whole entry): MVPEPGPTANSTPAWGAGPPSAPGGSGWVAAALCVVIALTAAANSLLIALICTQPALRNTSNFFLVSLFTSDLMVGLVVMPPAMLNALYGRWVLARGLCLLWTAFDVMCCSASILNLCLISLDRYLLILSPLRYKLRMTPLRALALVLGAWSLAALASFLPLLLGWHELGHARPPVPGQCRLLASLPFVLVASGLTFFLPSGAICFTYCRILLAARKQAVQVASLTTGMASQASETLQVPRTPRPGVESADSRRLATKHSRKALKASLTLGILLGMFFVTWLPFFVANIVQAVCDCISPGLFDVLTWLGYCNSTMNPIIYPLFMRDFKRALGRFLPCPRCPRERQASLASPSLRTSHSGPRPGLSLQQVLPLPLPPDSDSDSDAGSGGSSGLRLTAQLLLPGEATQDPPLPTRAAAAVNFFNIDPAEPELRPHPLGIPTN
Assay [5] deals with T1, Glucocorticoid receptor (Homo sapiens, UniProt P04150).
T1 sequence (P04150 whole entry): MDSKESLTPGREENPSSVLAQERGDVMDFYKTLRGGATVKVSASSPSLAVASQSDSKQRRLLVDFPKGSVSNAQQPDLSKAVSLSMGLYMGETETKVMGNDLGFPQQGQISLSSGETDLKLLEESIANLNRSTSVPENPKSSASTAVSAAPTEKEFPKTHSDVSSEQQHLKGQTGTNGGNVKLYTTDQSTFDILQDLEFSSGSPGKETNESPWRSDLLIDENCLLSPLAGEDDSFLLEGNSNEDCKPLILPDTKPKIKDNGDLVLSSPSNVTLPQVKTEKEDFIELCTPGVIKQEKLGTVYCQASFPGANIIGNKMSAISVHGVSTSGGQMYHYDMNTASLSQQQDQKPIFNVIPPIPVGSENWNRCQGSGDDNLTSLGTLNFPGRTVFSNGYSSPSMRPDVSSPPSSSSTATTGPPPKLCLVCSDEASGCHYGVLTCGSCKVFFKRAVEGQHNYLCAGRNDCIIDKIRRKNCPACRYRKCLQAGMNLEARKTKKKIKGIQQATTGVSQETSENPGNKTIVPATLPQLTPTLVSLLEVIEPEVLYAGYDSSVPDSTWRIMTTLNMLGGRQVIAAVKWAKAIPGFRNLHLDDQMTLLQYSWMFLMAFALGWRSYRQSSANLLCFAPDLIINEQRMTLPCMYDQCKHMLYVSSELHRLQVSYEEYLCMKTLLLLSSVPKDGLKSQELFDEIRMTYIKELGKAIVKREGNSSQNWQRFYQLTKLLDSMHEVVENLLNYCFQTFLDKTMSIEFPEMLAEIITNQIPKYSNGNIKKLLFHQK
Particulars: hela s3.

In assay [6] the target is T2, Alpha-1A adrenergic receptor (Rattus norvegicus, UniProt P43140).
T2 sequence (P43140 whole entry): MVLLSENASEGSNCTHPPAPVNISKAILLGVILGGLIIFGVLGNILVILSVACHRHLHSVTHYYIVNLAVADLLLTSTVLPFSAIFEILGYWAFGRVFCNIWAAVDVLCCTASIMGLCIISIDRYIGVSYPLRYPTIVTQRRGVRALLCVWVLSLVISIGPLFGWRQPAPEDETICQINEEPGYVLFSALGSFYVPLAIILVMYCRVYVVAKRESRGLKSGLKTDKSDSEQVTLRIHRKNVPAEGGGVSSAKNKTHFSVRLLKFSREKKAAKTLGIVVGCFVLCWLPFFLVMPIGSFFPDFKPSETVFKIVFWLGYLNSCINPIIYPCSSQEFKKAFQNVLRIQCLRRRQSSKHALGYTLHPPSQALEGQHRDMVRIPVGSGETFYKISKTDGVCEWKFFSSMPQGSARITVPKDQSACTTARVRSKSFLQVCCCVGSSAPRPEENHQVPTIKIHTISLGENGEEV
In words: DRUGMATRIX: Alpha-1A adrenergic receptor radioligand binding (ligand: prazosin). The following applies: Not Active = under 50% inhibition at 10 µM. It counts as cell membranes, Wistar, Submaxillary gland, Membrane.

Consider `NC(=O)CN1CCCC1=O`, for which the IC50 entry in assay [1], in assay [2], in assay [3], in assay [4] (hela), in assay [5] and in assay [6] was “Not Active” each time. Further, the Ki result in assay [1] is on record as “Not Active”.

A word on the pIC50: it is the IC50 on a negative log10 scale, so that one unit is a factor of ten. By pKi is commonly meant the negative decadic logarithm of the Ki, by convention in mol/L. Regarding `CC(N)Cc1c[nH]c2ccc(OCc3cccs3)cc12` (stereo not given) [BW-723C86], the IC50 entry in assay [1], in assay [2], in assay [3], in assay [5] and in assay [6] was “Not Active” each time. Besides, the Ki entry in assay [1] is “Not Active”. Also, the negative logarithm of the IC50 (pIC50) in assay [4] was 6.19. In assay [4], the pKi was 6.53.

With `ClC1=C(Cl)[C@]2(Cl)[C@@H]3[C@@H]4C[C@@H]([C@H]5O[C@@H]45)[C@@H]3[C@@]1(Cl)C2(Cl)Cl` [DIELDRIN], the IC50 entry in assay [1], in assay [2], in assay [4] (hela), in assay [5] and in assay [6] was “Not Active” throughout. Further, the Ki entry in assay [1] is “Not Active”. Further, in assay [3] (read-out: IC50), the pIC50 was 4.36.

`CN(Cc1cc(Br)cc(Br)c1N)C1CCCCC1` [BROMHEXINE]: the IC50 entry in assay [1], in assay [2], in assay [3], in assay [4] (hela), in assay [5] and in assay [6] was “Not Active” each time. The Ki entry in assay [1] is recorded as “Not Active”.

Consider `c1ccc(Cn2ccnc2)cc1`, for which the IC50 entry in assay [1], in assay [2], in assay [3], in assay [4] (hela), in assay [5] and in assay [6] was “Not Active” each time. The Ki result in assay [1] is given as “Not Active”.

Regarding `CCO` [ALCOHOL], the IC50 entry in assay [1], in assay [2], in assay [3], in assay [4] (hela), in assay [5] and in assay [6] was “Not Active” throughout. In assay [1], the Ki entry is “Not Active”.

With `NC(=O)NC(=O)Cc1ccccc1` [PHENACEMIDE], the IC50 result in assay [1], in assay [2], in assay [3], in assay [4] (hela), in assay [5] and in assay [6] was “Not Active” in each case. The Ki result in assay [1] was “Not Active”.

As to `Nc1ccc(Cc2ccc(N)cc2)cc1`, the IC50 result in assay [1], in assay [2], in assay [3], in assay [4] (hela), in assay [5] and in assay [6] was “Not Active” throughout. For the same compound, the Ki result in assay [1] is “Not Active”.

In the case of `C[N+](C)(C)CCOP(=O)([O-])OC[C@H](O)CO`, the IC50 entry in assay [1], in assay [2], in assay [3], in assay [4] (hela), in assay [5] and in assay [6] was “Not Active” each time. Moreover, the Ki result in assay [1] is “Not Active”.

As to `Clc1cc(Cl)c(OCC#CI)cc1Cl` [HALOPROGIN], the IC50 result in assay [1], in assay [2], in assay [3], in assay [5] and in assay [6] was “Not Active” each time. Further, the Ki entry in assay [1] is “Not Active”. Moreover, the negative logarithm of the IC50 (pIC50) in assay [4] was 5.40. For the same compound, the pKi in assay [4] was 5.73.

On to `CCN(CCO)CCCC(C)Nc1ccnc2cc(Cl)ccc12` (stereo not given) [HYDROXYCHLOROQUINE], for which the IC50 entry in assay [1], in assay [2], in assay [3], in assay [4] (hela), in assay [5] and in assay [6] was “Not Active” each time. Besides, the Ki result in assay [1] is recorded as “Not Active”.

On to `O=C1c2ccccc2C(=O)C1c1ccccc1` [PHENINDIONE], for which the IC50 result in assay [1], in assay [2], in assay [3], in assay [4] (hela), in assay [5] and in assay [6] was “Not Active” each time. In addition, the Ki result in assay [1] is “Not Active”.

In the case of `NC(N)=Nc1nc(CSCCC(N)=NS(N)(=O)=O)cs1` [FAMOTIDINE], the IC50 result in assay [1], in assay [2], in assay [3], in assay [4] (hela), in assay [5] and in assay [6] was “Not Active” throughout. Besides, the Ki entry in assay [1] is recorded as “Not Active”.

For `Cc1ccnc2c1NC(=O)c1cccnc1N2C1CC1` [NEVIRAPINE], the IC50 entry in assay [1], in assay [2], in assay [3], in assay [4] (hela), in assay [5] and in assay [6] was “Not Active” each time. For the same compound, the Ki result in assay [1] is listed as “Not Active”.

On to `CO[C@H]1O[C@@H]2O[C@@]3(C)CC[C@H]4[C@H](C)CC[C@@H]([C@H]1C)[C@@]24OO3`, for which the IC50 entry in assay [1], in assay [2], in assay [3], in assay [4] (hela), in assay [5] and in assay [6] was “Not Active” throughout. Moreover, in assay [1], the Ki entry is “Not Active”.

On to `CN(CCOc1ccc(C[C@H](Nc2ccccc2C(=O)c2ccccc2)C(=O)O)cc1)c1ccccn1`, for which the IC50 entry in assay [1], in assay [2], in assay [3], in assay [4] (hela), in assay [5] and in assay [6] was “Not Active” in each case. Besides, the Ki entry in assay [1] is “Not Active”.

In the case of `c1ccc2sc(SSc3nc4ccccc4s3)nc2c1` [BENZOTHIAZYL DISULFIDE], the IC50 entry in assay [1], in assay [2], in assay [3], in assay [5] and in assay [6] was “Not Active” throughout. Further, the Ki result in assay [1] is recorded as “Not Active”. In addition, the pIC50 in assay [4] is 5.28. In addition, in assay [4], the pKi was 5.61.

Take `COc1ccc(C[C@H](N)C(=O)N[C@H]2[C@@H](O)[C@H](n3cnc4c(N(C)C)ncnc43)O[C@@H]2CO)cc1` [PUROMYCIN]: the IC50 entry in assay [1], in assay [2], in assay [3], in assay [4] (hela), in assay [5] and in assay [6] was “Not Active” throughout. The Ki entry in assay [1] was “Not Active”.

Turning to `O=c1[nH]c2ccccc2c2ccccc12`, the IC50 result in assay [1], in assay [2], in assay [3], in assay [4] (hela), in assay [5] and in assay [6] was “Not Active” in each case. The Ki entry in assay [1] is “Not Active”.

In the case of COPPER(II) OXIDE, the IC50 result in assay [1], in assay [2], in assay [3], in assay [4] (hela), in assay [5] and in assay [6] was “Not Active” throughout. For the same compound, the Ki entry in assay [1], in assay [2], in assay [3], in assay [4] (hela), in assay [5] and in assay [6] was “Not Active” in each case.

Regarding `CC12CCC(CC1)C(C)(C)O2` [EUCALYPTOL], the IC50 entry in assay [1], in assay [2], in assay [3], in assay [4] (hela), in assay [5] and in assay [6] was “Not Active” in each case. The Ki entry in assay [1] is reported as “Not Active”.
